We go through one compound from patent publication US7071178B2, “Use of vitamin D-derivatives in the treatment of osteoporosis and related bone disorders, as well as novel vitamin D3-derivatives” (Leo Pharmaceutical Products, Ltd., priority 2000, dated 2006).

A value given as a limit tells only on which side of the number the result lay.

The test system of this series is OVX rats. The series can be described thus: OVX rat model on osteoporosis: serum calcium. The class given is in vivo. Also on record: key to Effect on serum calcium vs 1,25D3: <: less effect than the reference dose of 1,25D3 (0.25 ug/kg); <=: less or the same effect as the reference dose of 1,25D3 (0.25 ug/kg); =: same effect as the reference dose of 1,25D3 (0.25 ug/kg); =>: same or better effect as the reference dose of 1,25D3 (0.25 ug/kg); >: better effect than the reference dose of 1,25D3 (0.25 ug/kg). Conditions: for Effect on serum calcium vs 1,25D3 / Effect on serum calcium vs Ovx contr: oral 28 days. The source says: Pharmacological Methods—OVX Rat Model on Osteoporosis
To study bone anabolic properties and the effects of the vitamin D analogues of the present invention in preventing or treating demineralisation of the skeleton in vivo, a 4 weeks OVX rat model was used:
An ovariectomized rat model (OVX model), orally dosed for 28 days is useful for screening of vitamin D analogues. In this model ovariectomy produces alterations in the cancellous network identical to those seen in the human skeleton during ageing and the menopause. Besides this the model and the following analyses can be performed under very standardised conditions. 1α,25(OH)2D3 is used as a reference compound.
Female Sprague Dawley rats weighing approximately 130 g (40–45 days old) were purchased from MB, Ejby, Denmark. The animals were fed a commercial diet and allowed free access to food and drinking water. The animals were split into groups receiving differential treatment.
The animals were anaesthetised and ovariectomized through a dorsal incision.
Treatment of OVX animals was started 2 weeks after ovariectomy.
The animals were dosed orally for 28 days. The oral dosage was by gavage 0.1 ml/100 g bodyweight. The bodyweight of each animal was recorded every day prior to oral dosing. On day 7, 14, 21 and 28 the animals were housed separately for 24 hours in metabolic cages for collection of urine. Urine was frozen at −20° C. for later calcium measurement.
At day 28 the animals were anaesthetised and 2 ml of blood was obtained either by heart puncture or from the orbital vein, after this the animals were euthanized by CO2. The serum fraction was then removed and frozen at −20° C. for later measurement of calcium, phosphorous and creatinine.
Effect of Compound 145 compared to the reference dose of 1,25(OH)2D3 (1,25D3) (0.25 μg/kg) and compared to the OVX control group (shown in %) are shown in Tables 1 to 4.

Regarding `C=C1C(=CC=C2CCCC3(C)C2CCC3C(C)CSc2ccc(C(C)(C)O)cc2)CC(O)CC1O` [Compound 145, 1(S),3(R)-Dihydroxy-20(R)-(4-((1-hydroxy-1-methyl)ethyl)phenylthiomethyl)-9,10-seco-pregna-5(Z),7(E),10(19)-triene], the “Effect on serum calcium vs 1,25D3” value was “No” (1 μg/kg, MTR/16); “No” (10 μg/kg, MTR/16); “<” (10 μg/kg, MTR/23); “<” (25 μg/kg, MTR/27); “No” (50 μg/kg, MTR/23); “=” (50 μg/kg, MTR/27). The “Effect on serum calcium vs 1,25D3” value reads like this: (75 μg/kg, MTR/27) “=”; (100 μg/kg, MTR/23) “No”. For the same compound, the “Effect on serum calcium vs Ovx contr” value (1 μg/kg, MTR/16) is listed as 0%; the “Effect on serum calcium vs Ovx contr” value (10 μg/kg, MTR/16) turned out to be 3%; the “Effect on serum calcium vs Ovx contr” value (10 μg/kg, MTR/23) is 6%; the “Effect on serum calcium vs Ovx contr” value (25 μg/kg, MTR/27) was determined as 11%; the “Effect on serum calcium vs Ovx contr” value (50 μg/kg, MTR/23) is 2%; the “Effect on serum calcium vs Ovx contr” value (50 μg/kg, MTR/27) turned out to be 18%. The “Effect on serum calcium vs Ovx contr” value by setting is: (75 μg/kg, MTR/27) 20%; (100 μg/kg, MTR/23) −5%. Moreover, the “calcaemic effect (adverse effect) compared to 1,25D3” value (summary of Tables 1 to 4) is on record as “reduced”.
